# Where a name gives a salt, the structure may show the parent alone.
# Assays:
# [1] = Comparison of unmilled coarse DMF versus wet-milled DMF for enteric coating in fluid bed; format: physicochemical; settings: for Coated crystals: enterically coated particles made from the named API
# Experimental: The enteric coated DMF is prepared using a Glatt GPCG-2 fluid bed granulator with a 6′ Wurster column. Dissolution was run with USP apparatus II by the Pharmaceutical Analytical Development Department with the following method.
# DMF first de-lumped with a Frewitt Comill with screen size 1.0 mm. Then, it is mixed with silicon dioxide (Aerosil) and being fluidize in the fluid bed granulator for 5 minutes.
# Eudragit L100 and triethyl citrate is used for coating an enteric layer for stomach acid protection on the DMF API particles. Samples were taken at different L100 weight gain to compare gastric protection capability.
# Unmilled coarse DMF were coated according to the method of described in Example 5. Various properties of the unmilled coarse DMF and enterically coated DMF are compared with wet-milled DMF and enterically coated DMF made from wet-milled DMF.
# [2] = Mean particle size of coarse DMF from current synthesis (method not given); format: physicochemical; settings: DMF isolated from current chemical synthesis, before size reduction
smiles,measurement,setting,value
"COC(=O)/C=C/C(=O)OC [Unmilled coarse API, dimethyl fumarate]",Coated crystals,[1],Significant agglomeration
same,Coated crystals,[1]; listed as unmilled coarse DMF particles,Significant agglomeration of the coated particles
same,Flow of API particle in fluid bed,[1]; fluid bed coating process,Uneven flow due to API plate
same,Particle morphology,[1]; uncoated API particles,2D plate structure
same,typical mean particle size,[2],500-600 microns
